Test results published in the supplement of paper PMC10307832.

Legend:
Experiment in all cases: relative viability (nuclei count vs DMSO), 5 days (fraction); higher = more cells survive
[1] = compound: COC1=CC=C(C=C1)CN2C=CC3=C2C=C(C=C3)C(=O)NO + Nc1nc2[nH]cc(CCc3ccc(C(=O)N[C@@H](CCC(=O)O)C(=O)O)cc3)c2c(=O)[nH]1 [Pemetrexed] (partner 0.2 µM)
How it was run: (§1)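 For relative viability, nuclei counts in treated wells were divided by those in vehicle wells. Lung cancer cell lines had been pin-tool dosed in 1536-well plates the day after seeding and cultured for 5 days, then fixed and stained in one step (final 0.05% Triton X-100, 1% formaldehyde, 1 ug/ml Hoechst) and imaged at 4×. Doses were one drug alone or a fixed anchor-drug dose plus five library-drug doses (not always all listed) in √10 steps, and values are duplicate-plate medians.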

[2] = compound: COC1=CC=C(C=C1)CN2C=CC3=C2C=C(C=C3)C(=O)NO + CC(=O)c1c(C)c2cnc(Nc3ccc(N4CCNCC4)cn3)nc2n(C2CCCC2)c1=O [Palbociclib] (partner 0.5 µM)
How it was run: as §1

Veliparib + Decitabine = compound: C[C@]1(c2nc3c(C(N)=O)cccc3[nH]2)CCCN1 [Veliparib] + Nc1ncn([C@H]2C[C@H](O)[C@@H](CO)O2)c(=O)n1 [Decitabine] (partner 2 µM)
How it was run: as §1

Veliparib + Alpelisib = compound: C[C@]1(c2nc3c(C(N)=O)cccc3[nH]2)CCCN1 [Veliparib] + Cc1nc(NC(=O)N2CCC[C@H]2C(N)=O)sc1-c1ccnc(C(C)(C)C(F)(F)F)c1 [Alpelisib] (partner 2 µM)
How it was run: as §1

Row | Cell Line | relative viability ([1]; first compound 0.253 µM) | relative viability ([1]; first compound 0.8 µM) | relative viability ([1]; first compound 2.53 µM) | relative viability ([1]; first compound 8 µM) | relative viability ([2]; first compound 0.253 µM) | relative viability ([2]; first compound 0.8 µM) | relative viability ([2]; first compound 2.53 µM) | relative viability ([2]; first compound 8 µM) | relative viability (Veliparib + Decitabine; first compound 0.06325 µM) | relative viability (Veliparib + Decitabine; first compound 0.2 µM) | relative viability (Veliparib + Decitabine; first compound 0.6325 µM) | relative viability (Veliparib + Decitabine; first compound 2 µM) | relative viability (Veliparib + Alpelisib; first compound 0.02 µM) | relative viability (Veliparib + Alpelisib; first compound 0.06325 µM) | relative viability (Veliparib + Alpelisib; first compound 0.2 µM) | relative viability (Veliparib + Alpelisib; first compound 0.6325 µM) | relative viability (Veliparib + Alpelisib; first compound 2 µM) | relative viability ([1]; first compound 0.08 µM) | relative viability ([2]; first compound 0.08 µM) | relative viability (Veliparib + Decitabine; first compound 0.02 µM)
1 | NCI-H1734 | 0.413 | 0.427 | 0.4 | 0.414 | 0.367 | 0.387 | 0.341 | 0.34 | 0.374 | 0.389 | 0.33 | 0.35 | 0.734 | 0.569 | 0.705 | 0.667 | 0.744 | – | – | –
2 | NCI-H2087 | 0.56 | 0.669 | 0.599 | 0.535 | 0.226 | 0.259 | 0.28 | 0.164 | 0.244 | 0.237 | 0.2 | 0.174 | 1.05 | 1.02 | 1.09 | 1.07 | 1.04 | 0.575 | 0.261 | 0.255
3 | LCLC-103H | 0.452 | 0.482 | 0.414 | 0.425 | 0.439 | 0.481 | 0.466 | 0.515 | 0.662 | 0.667 | 0.705 | 0.714 | 1.13 | 0.896 | 0.936 | 1.06 | 0.949 | 0.475 | 0.435 | 0.809
4 | NCI-H1299 | – | – | – | – | – | – | – | – | – | – | – | – | 1.04 | 0.992 | 1.03 | 0.985 | 1.05 | – | – | –
5 | RERF-LC-KJ | 0.502 | 0.482 | 0.501 | 0.521 | 1.1 | 1.07 | 1.09 | 1.05 | 0.631 | 0.607 | 0.72 | 0.674 | 0.715 | 0.891 | 0.96 | 0.761 | 0.74 | 0.442 | 1.05 | 0.658
6 | PC-3 [JPC-3] | – | 1.14 | 1.21 | 1.12 | – | 0.559 | 0.55 | 0.535 | – | 0.85 | 0.763 | 0.741 | 1.1 | 0.981 | 0.959 | 1.03 | 0.993 | 1.04 | 0.562 | 0.766
7 | EKVX | 0.391 | 0.371 | 0.45 | 0.392 | 0.408 | 0.387 | 0.384 | 0.351 | 0.319 | 0.364 | 0.338 | 0.294 | 0.784 | 0.867 | 0.85 | 0.837 | 0.902 | – | – | –
8 | NCI-H520 | 0.743 | 0.641 | 0.661 | 0.648 | 0.194 | 0.208 | 0.214 | 0.195 | 0.404 | 0.414 | 0.375 | 0.35 | 0.882 | 1.06 | 0.859 | 0.791 | 1.03 | 0.525 | 0.197 | 0.427
9 | NCI-H2228 | 0.347 | 0.336 | 0.343 | 0.298 | 0.825 | 0.904 | 0.685 | 0.573 | – | – | – | – | 0.818 | 0.688 | 0.832 | 0.623 | 0.678 | 0.311 | 0.544 | –
10 | EBC-1 | – | – | – | – | – | – | – | – | – | – | – | – | 0.882 | 0.77 | 0.849 | 0.654 | 0.858 | – | – | –
11 | NCI-H596 | 0.501 | 0.5 | 0.469 | 0.492 | – | – | – | – | 1 | 0.969 | 0.814 | 0.965 | 0.516 | 0.497 | 0.541 | 0.472 | 0.526 | 0.42 | – | 1.14
12 | ABC-1 | – | – | – | – | 0.768 | 0.713 | 0.77 | 0.615 | – | 0.82 | 1.07 | 1.06 | – | 0.809 | 1.1 | 1.05 | 0.894 | – | – | –
13 | ChaGo-K-1 | 0.266 | 0.275 | 0.262 | 0.255 | 0.914 | 0.928 | 0.904 | 0.874 | 0.453 | 0.411 | 0.439 | 0.422 | – | – | – | – | – | – | – | 0.446
14 | NCI-H2342 | 0.788 | 0.791 | 0.753 | 0.829 | 0.586 | 0.52 | 0.538 | 0.559 | 0.758 | 0.679 | 0.718 | 0.725 | – | – | – | – | – | 0.726 | 0.467 | 0.729
15 | NCI-H1703 | – | – | – | – | – | – | – | – | – | – | – | – | 0.245 | 0.303 | 0.316 | 0.35 | 0.368 | – | – | –
16 | NCI-H1650 | 0.428 | 0.378 | 0.392 | 0.308 | 0.341 | 0.354 | 0.426 | 0.351 | 0.326 | 0.433 | 0.43 | 0.308 | – | – | – | – | – | 0.286 | 0.355 | 0.256
17 | NCI-H522 | 1.01 | 1.06 | 0.84 | 1 | 0.944 | 0.972 | 0.999 | 0.955 | 0.561 | 0.547 | 0.622 | 0.678 | – | – | – | – | – | – | – | 0.663
18 | NCI-H1563 | 0.708 | 0.839 | 0.728 | 0.761 | – | – | – | – | – | – | – | – | 0.981 | 0.965 | 1 | 0.826 | 1.04 | 0.489 | – | –
19 | NCI-H1648 | 0.853 | 0.829 | 0.717 | 0.641 | 0.309 | 0.298 | 0.277 | 0.269 | – | – | 0.529 | 0.424 | – | – | – | – | – | 0.794 | 0.254 | 0.487
20 | SW 900 | 0.47 | 0.478 | 0.486 | 0.474 | 0.564 | 0.565 | 0.525 | 0.51 | 0.377 | 0.396 | 0.427 | 0.388 | – | – | – | – | – | 0.446 | 0.491 | –
21 | IA-LM | – | – | – | – | – | – | – | – | – | – | – | – | 0.796 | 0.764 | 0.684 | 0.503 | 0.968 | – | – | –
22 | A549 | – | – | – | – | – | – | – | – | 0.137 | 0.0868 | 0.106 | 0.0789 | 0.697 | 0.686 | 0.75 | 0.688 | 0.796 | – | – | 0.202
23 | CAL-12T | 1.27 | 1.09 | 1.1 | 1.27 | 0.517 | 0.585 | 0.325 | 0.566 | – | – | – | – | 1.23 | 1.05 | 1.4 | 1.12 | 1.24 | 1.2 | 0.424 | –
